US20120142771A1, “BIPHENYLACETAMIDE DERIVATIVE” (Dainippon Sumitomo Pharma Co., Ltd., priority 2008, published 2012)

Key:
[1] = tested on: subcutaneously pentetrazol-injected model (scPTZ); assay: Subcutaneously pentetrazol-injected model (scPTZ) test; format: in vivo, mice; conditions: pentetrazol 85 mg/kg s.c. after 1 hour
In short: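 Pentetrazol (85 mg/kg, s.c.) was injected one hour after oral test compound at 50 or 100 mg/kg in groups of three male Slc:ddY mice weighing 20-30 g; vehicle controls got 0.5% tragacanth or 0.5% methylcellulose.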

Slc: C57BL/6J male mice = assay: Evaluation of antimanic effect (methamphetamine and chlordiazepoxide induced hyperactivity, locomotor distance); format: in vivo; conditions: methamphetamine 4 mg/kg and chlordiazepoxide 10 mg/kg i.p.
Source text: (§1) Meanwhile, there are no reports about animal models which provide a good clinical prediction to evaluate the improving efficacy for bipolar disorder. However, bipolar disorder comprises “manic state” and “depressive state”, and some animals are reported to be useful as a model to evaluate the improvement of each pathological condition individually. In general, an index of manic state is excessive hyperactivity induced by administering methamphetamine and chlordiazepoxide in combination, and that of depressive state is immobility induced by forced swimming.
Test 7: Evaluation of Antimanic Effect
Test 7 evaluates the antimanic effect of medicaments. The evaluation system is a test system whose utility has been already confirmed with a known antimanic agent which is clinically used as a mood-stabilizing drug, not as a drug for treating schizophrenia (Arban et al., Behay. Brain Res., 158:123-132, 2005, Foreman et al., Pharmacol. Biochem. Behay., 89: 523-534, 2008). Test compounds were orally administered to Slc: C57BL/6J male mice (8 mice in each group, body weight 20-26 g). After 30 minutes of administration, methamphetamine (4 mg/kg) and chlordiazepoxide (10 mg/kg) were administered intraperitoneally. Then, the mice were allowed to move freely in an acrylic cage (W 360 mm×D 230 mm×H 310 mm) for 90 minutes. The locomotor distances of the mice were measured with Ethovision software (Ver. 3.1). Among the 90 minutes, the result of the latter 60 minutes with the exception of the first 30 minute's result for adaptation to the new environment was used as data of the locomotor distance. The antimanic effect was evaluated by calculating how long locomotor distance was shortened against the control. To the control mice, 0.5% methylcellulose solution was administered.

amygdala-kindling model = assay: Amygdala-kindling model in rats; format: in vivo
Source text: Test 3: Test with Amygdala-Kindling Model in Rats
Test 3 evaluates the anticonvulsant action of medicaments in rats, besides mice in Tests 1 and 2. Animal model (kindling model) used herein is a very similar model to clinical findings of focal onset seizures (i.e. simple partial seizure, complex partial seizure, and secondarily generalized tonic-clonic seizure), which is known to provide excellent clinical prediction. A chronic electrode was implanted in the cortex (frontal and posterior regions) and the amygdala of Slc: Wistar male rats (body weight 250-300 g). One week after the above operation, electrical stimulation (50 Hz, 400 μA, 1 second) into the amygdala was conducted once a day for about two weeks. The stimulation condition was determined according to the method of Loscher et al. [Epilepsy Res., 40: 63-77 (2000)]. The stimulation was continued until the seizure stage 5 in the seizure severity stages according to the method of Racine et al. [Motor seizure. Electroenceph. Clin. Neurophysiol., 32:281-294 (1972)] was observed 10 consecutive times. Kindling model was thus completed. Then, test compounds (100 mg/kg) were orally administered to this model. After an hour of administration, the rats were evaluated based on three parameters, i.e., a threshold stimulus current to induce seizure (i.e. seizure threshold), the duration of afterdischrage observed on an electroencephalogram, and seizure severity (stage scores 1-5). The results of the seizure threshold and the afterdischarge duration were shown as average percentage of change from the pretreatment value obtained before the administration of each test compound. To the control rats, 0.5% tragacanth solution was administered. Minus means decreased or shortened.

[2] = tested on: 6 Hz psychomotor seizure model; assay: 6 Hz psychomotor seizure model; format: in vivo, mice; conditions: mice
In short: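 Anticonvulsant activity was tested in the 6 Hz psychomotor seizure model in mice, a model reflecting seizures resistant to current antiepileptic drugs. 30 minutes or an hour after dosing, corneal electrical stimulation (6 Hz, 32 mA, 3 seconds) was applied to provoke forelimb myoclonus, Straub tail and immobility. Control mice received 0.5% tragacanth solution, 0.5% methylcellulose solution or olive oil.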

Crl: CD (SD) male rats = assay: Evaluation of antidepressant effect (forced swimming, duration of immobility); format: in vivo
Source text: as §1
Test 6: Evaluation of Antidepressant Effect
Test 6 is a typical test to evaluate the antidepressant activity of medicaments (Porsolt et al., Nature, 266: 730-732, 1977, Porsolt et al., Eur. J. Pharmacol., 47: 379-391, 1978). Crl: CD (SD) male rats (12 rats in each group, body weight 200-250 g) were forced to swim for 15 minutes in a water pool with 200 mm diameter. In the pool, water was filled up to a depth of 205 mm from the bottom of the pool, and thus the rats could not touch the bottom of the pool with their hind limbs. Fifteen minutes after the completion of the forced swimming, test compounds were orally administered to the rats. On the next day, the test compounds were administered to the rats at the same dose as the previous day, and the rats were put in the pool for 5 minutes at the same clock time as the previous day. […] The antidepressant effect was evaluated by calculating how long the duration of immobility was shortened against the control. To the control, 0.5% methylcellulose solution was administered.

[3] = oral administration at a dose of 100 mg/kg

Question: Which responders at 50 mg/kg ([1]; Mus musculus, po, 1 h, 50 mg/kg oral, Slc: ddY male mice, 3 per group, observed 30 minutes for clonic convulsion, read-out: scPTZ (positive number/tested number) (converted)) does the source give for `NC(=O)Cc1ccccc1-c1ccccc1F` [Example 1, 2-(2′-Fluorobiphenyl-2-yl)acetamide] here?
Answer: 66.7%

Question: What about the responders at 100 mg/kg ([1]; Mus musculus, po, 1 h, 100 mg/kg oral, Slc: ddY male mice, 3 per group, observed 30 minutes for clonic convulsion, read-out: scPTZ (positive number/tested number) (converted)) of the same compound?
Answer: 66.7%

Question: And the “anticonvulsant action in subcutaneously pentetrazol-injected model (scPTZ) test” value ([1]; mice, oral 50 or 100 mg/kg)?
Answer: anticonvulsant action was observed

Question: And the “The rate of the shortened locomotor-distance (% control)” value (Slc: C57BL/6J male mice; 30 mg/kg oral)?
Answer: 24.1 % control

Question: And the “The rate of the shortened locomotor-distance (% control)” value (Slc: C57BL/6J male mice; 60 mg/kg oral)?
Answer: 43.8 % control

Question: And the “The rate of the shortened locomotor-distance (% control)” value (Slc: C57BL/6J male mice; 100 mg/kg oral)?
Answer: 73.8 % control

Question: And the “Seizure threshold (uA) Δ % change” value (amygdala-kindling model; 100 mg/kg oral, 1 hour after administration, average percentage of change from pretreatment value)?
Answer: 69.3%

Question: And the “Afterdischarge duration (sec) Δ % change” value (amygdala-kindling model; 100 mg/kg oral, 1 hour after administration, change from pretreatment value, minus means shortened)?
Answer: −88%

Question: What about the Seizure severity score (amygdala-kindling model; 100 mg/kg oral, 1 hour after administration, stage scores 1-5) of the same compound?
Answer: 2.0

Question: And the “efficacy against the amygdala-kindling model” value (amygdala-kindling model; [3])?
Answer: potent efficacy

Question: And the ED50 ([2]; Mus musculus, 6 Hz psychomotor seizure model, oral, read-out: ED50)?
Answer: 56.2 mg/kg

Question: What about the “efficacy in 6 Hz psychomotor seizure model” value [2, 3] of the same compound?
Answer: potent efficacy

Question: And the “6 Hz (Positive number/tested number)” value ([2]; oral, dose 100 mg/kg, 30 minutes or 1 hour after administration)?
Answer: 10/10/100

Question: And the “The rate of the shortened duration of immobility (% control)” value (Crl: CD (SD) male rats; 10 mg/kg oral)?
Answer: 23.4 % control

Question: What about the “The rate of the shortened duration of immobility (% control)” value (Crl: CD (SD) male rats; 30 mg/kg oral) of the same compound?
Answer: 24.9 % control
